“Also recorded” adds a separate entry of the source.
Columns and labels:
Dengue Virus = experiment: Dengue virus infection of U2OS cells, qPCR; type: cell-based; conditions: MOI 1, ~16-18 hours, CT110 10 μM, CT1107 2.5-10 μM, FIG. 10
Procedure: (§1) U2OS cells were treated with DMSO or 10 μM of CT110 (also known as CT189, left graph) or DMSO or 2.5 μM, 5 μM, 7.5 μM, and 10 μM CT1107 (right graph). 2 hours after starting treatment, U2OS cells were infected with a multiplicity of infection (MOI) of 1 for Dengue Virus and incubated at 37° C. for ˜16-18 hours. Cells were harvested with Trizol and RNA was extracted for qPCR. Y-axis indicates fold change in infection.

SARS-CoV-2 [1] = experiment: Infection of Huh7.5 cells by replication competent SARS-CoV-2, qRT-PCR; type: cell-based; conditions: 10 μM, 24 hours post inoculation
Procedure: FIG. 3 illustrates the finding that only certain Sigma1 inhibitors block SARS-CoV-2 infection. […] Results can be compared to vehicle (DMSO), Remdesivir (Rem, 10 μM), and hydroxychloroquine (HCQ, 10 μM). Compounds and SARS-CoV-2 were added to cell culture; 24 hours post inoculation relative infection calculated by qRT-PCR.
A discrete set of Sigma1 modulators was tested in an assay of replication competent SARS-CoV-2 infectivity. […] Strikingly, IPAG, CT189, and CT1107 blocked SARS-CoV-2 infection by 1,000 (IPAG, CT189, CT360) to 10,000 (CT1107) fold.

Androgen Receptor [2] = target: T1, Androgen Receptor (Homo sapiens, UniProt P10275)
T1 sequence (P10275 1-920): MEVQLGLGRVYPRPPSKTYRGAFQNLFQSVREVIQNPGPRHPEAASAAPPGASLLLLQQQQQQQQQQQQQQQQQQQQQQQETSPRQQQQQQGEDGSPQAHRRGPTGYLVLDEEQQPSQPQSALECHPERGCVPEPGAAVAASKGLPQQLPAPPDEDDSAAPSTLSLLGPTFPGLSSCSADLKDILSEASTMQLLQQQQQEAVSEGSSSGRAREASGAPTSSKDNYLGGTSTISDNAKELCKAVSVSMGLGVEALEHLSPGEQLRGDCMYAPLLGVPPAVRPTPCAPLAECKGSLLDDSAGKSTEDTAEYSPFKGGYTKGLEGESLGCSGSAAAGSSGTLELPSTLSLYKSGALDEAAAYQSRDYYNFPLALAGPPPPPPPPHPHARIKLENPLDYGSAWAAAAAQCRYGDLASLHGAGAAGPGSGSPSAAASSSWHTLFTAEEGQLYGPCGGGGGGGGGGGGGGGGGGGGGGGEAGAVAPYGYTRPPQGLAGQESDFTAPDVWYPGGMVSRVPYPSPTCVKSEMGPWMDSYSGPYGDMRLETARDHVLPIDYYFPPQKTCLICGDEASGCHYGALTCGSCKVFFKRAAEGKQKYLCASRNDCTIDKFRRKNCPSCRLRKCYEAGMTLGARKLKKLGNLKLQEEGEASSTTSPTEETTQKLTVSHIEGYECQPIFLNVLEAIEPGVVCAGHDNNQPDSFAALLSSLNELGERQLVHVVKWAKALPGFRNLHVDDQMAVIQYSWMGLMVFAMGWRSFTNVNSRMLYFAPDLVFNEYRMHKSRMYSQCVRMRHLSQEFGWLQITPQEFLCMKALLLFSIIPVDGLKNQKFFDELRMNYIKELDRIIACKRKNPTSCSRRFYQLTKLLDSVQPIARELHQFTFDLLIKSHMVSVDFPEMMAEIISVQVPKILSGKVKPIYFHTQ

Zika Virus = experiment: Zika virus infection of U2OS cells, qPCR; type: cell-based; conditions: MOI 1, ~16-18 hours, CT110 10 μM, CT1107 2.5-10 μM, FIG. 11
Procedure: as §1, with “Zika” for “Dengue”

Powassan Virus = type: cell-based; conditions: U2OS, MOI 1, ~16-18 hours; CT110 10 μM, CT1107 2.5-10 μM, FIG. 12
Androgen Receptor [3] = target: T1, Androgen Receptor; experiment: cell-based
Sigma1 = Sigma1 (Homo sapiens, UniProt Q99720); experiment: Sigma1 binding, Ki
[4] = system: Caco-2 (human colorectal epithelial cells); experiment: Toxicity in Caco-2 cells; type: cell-based; conditions: Caco-2 cells, 5, 7.5, 10 μM
Procedure: (§2) It was tested whether Sigma1-targeting compounds are antiviral in additional cell lines. VeroE6 cells stably expressing TMPRSS2and Caco-2 (human colorectal epithelial cells) were tested. […] In certain embodiments, these compounds are antiviral in primary respiratory epithelial cells.

SARS-CoV-2 [5] = experiment: SARS-CoV-2 infection of VeroE6/TMPRSS2 cells, qRT-PCR; type: cell-based; conditions: VeroE6/TMPRSS2 cells, 5, 7.5, 10 μM, 48 hours, FIG. 8
Procedure: (§3) FIG. 8 illustrates results obtained when VeroE6/TMPRSS2 or Caco2 cells were treated with DMSO or 5 μM, 7.5 μM, and 10 μM CT1107 and infected with SARS-CoV-2 for 48 hours. RNA was isolated and qRT-PCR was performed with virus-specific and 18S primers. Viral RNA was normalized to 18S RNA.
as §2

[6] = system: VeroE6 cells stably expressing TMPRSS2; experiment: Toxicity in VeroE6/TMPRSS2 cells; type: cell-based; conditions: VeroE6/TMPRSS2 cells, 5, 7.5, 10 μM
Procedure: as §2

[7] = system: Vero E6 cells expressing SARS-CoV-2 spike and human TMPRSS2; type: cell-based; conditions: Vero E6, 10 μM vs DMSO
human TMPRSS2 = type: cell-based; conditions: Vero E6 lysates, 10 μM, FIG. 7
SARS-CoV-2 [8] = experiment: SARS-CoV-2 infection of Caco2 cells, qRT-PCR; type: cell-based; conditions: Caco2 cells, 5, 7.5, 10 μM, 48 hours, FIG. 8
Procedure: as §3, §2

TMPRSS2 mRNA transcript = experiment: TMPRSS2 transcript levels in LNCaP cells; conditions: 10 μM, FIG. 1B

Sequence of Sigma1 (Q99720 whole entry): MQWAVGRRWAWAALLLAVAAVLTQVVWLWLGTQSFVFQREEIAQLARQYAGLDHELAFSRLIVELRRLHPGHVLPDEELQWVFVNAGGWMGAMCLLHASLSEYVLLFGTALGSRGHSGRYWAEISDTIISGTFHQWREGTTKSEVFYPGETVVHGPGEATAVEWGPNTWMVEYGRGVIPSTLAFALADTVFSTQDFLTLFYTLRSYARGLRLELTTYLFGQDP

Row | Structure (SMILES) | effect on SARS-CoV-2 infection (in words) (SARS-CoV-2 [1]; FIG. 3) | IC50 (Androgen Receptor [3]) | Ki (Sigma1) | also measured
1 | N=C(NCCCOc1ccc(F)cc1)Nc1ccc(Cl)cc1 [CT189] | suppressed SARS-CoV-2 infection; also recorded: inhibit SARS-CoV-2 infection |  |  | Dengue virus infection (fold change in infection) (Dengue Virus): inhibit dengue virus infection; blocked SARS-CoV-2 infection, fold (SARS-CoV-2 [1]; FIG. 3): 1,000 fold; dihydrotesterone (DHT) induced AR transcriptional activity (Androgen Receptor [2]): inhibition; Zika virus infection (fold change in infection) (Zika Virus): inhibit Zika virus infection; Powassan virus infection (fold change in infection) (Powassan Virus): inhibit Powassan virus infection
2 | COc1cc(NC(=N)NCCC(C)(C)Oc2ccc(C(F)(F)F)cc2)cnc1C#N [Compound A, 1-(6-cyano-5-methoxypyridin-3-yl)-3-(3-methyl-3-(4-(trifluoromethyl)phenoxy)butyl)guanidine] |  | 8.1 µM | 0.009 µM | 
3 | COc1cc(NC(=N)NCC(C)(C)COc2ccc(C(F)(F)F)cc2)cnc1C#N [Compound B, 1-(6-cyano-5-methoxypyridin-3-yl)-3-(2,2-dimethyl-3-(4-(trifluoromethyl)phenoxy)propyl)guanidine] |  | 10 µM | 0.006 µM | 
4 | CC(C)(CCNC(=N)Nc1ccc(Cl)c(Cl)c1)Oc1ccc(C(F)(F)F)cc1 [Compound D, 1-(3,4-dichlorophenyl)-3-(3-methyl-3-(4-(trifluoromethyl)phenoxy)butyl)guanidine] |  | 3 µM | 0.008 µM | 
5 | CC(C)(CCNC(=N)Nc1cnc(Cl)c(F)c1)Oc1ccc(C(F)(F)F)cc1 [Compound E, 1-(6-chloro-5-fluoropyridin-3-yl)-3-(3-methyl-3-(4-(trifluoromethyl)phenoxy)butyl)guanidine] |  | 5 µM | 0.005 µM | 
6 | COc1cc(NC(=N)NCCC(C)(C)c2ccc(C(F)(F)F)cc2)ncc1C#N [Compound F, 1-(5-cyano-4-methoxypyridin-2-yl)-3-(3-methyl-3-(4-(trifluoromethyl)phenyl)butyl)guanidine] |  | 3 µM | 0.011 µM | Dengue virus infection (fold change in infection) (Dengue Virus): inhibit dengue virus infection; blocked SARS-CoV-2 infection, fold (SARS-CoV-2 [1]; FIG. 3): 10,000 fold; effect on SARS-CoV-2 infection (in words) (SARS-CoV-2 [1]; FIG. 3, listed as CT1107): suppressed SARS-CoV-2 infection; also recorded: inhibit SARS-CoV-2 infection; also recorded: most potent inhibitor of CoV-2 infection; toxicity [4]: without toxicity; antiviral effect on SARS-CoV-2 (SARS-CoV-2 [5]): potently antiviral; toxicity [6]: without toxicity; number of syncytia ([7]; FIG. 5): significant decrease; size of syncytia (number of nuclei per syncytia) ([7]; FIG. 6): significant decrease; Zika virus infection (fold change in infection) (Zika Virus): inhibit Zika virus infection; TMPRSS2 protein level (human TMPRSS2): clear decrease; Powassan virus infection (fold change in infection) (Powassan Virus): inhibit Powassan virus infection; antiviral effect on SARS-CoV-2 (SARS-CoV-2 [8]): potently antiviral
7 | COC(=O)c1ccc(NC(=N)NCCC(C)(C)c2ccc(C(F)(F)F)cc2)nc1 [Compound G, methyl 6-(3-(3-methyl-3-(4-(trifluoromethyl)phenyl)butyl)guanidino)nicotinate] |  | 2.8 µM | 0.003 µM | 
8 | COC(=O)c1ccc(NC(=N)NCC(C)(C)COc2ccc(C(F)(F)F)cc2)nc1 [Compound H, methyl 6-(3-(2,2-dimethyl-3-(4-(trifluoromethyl)phenoxy)propyl)guanidino)nicotinate] | inhibit SARS-CoV-2 infection | 2.9 µM | 0.018 µM | blocked SARS-CoV-2 infection, fold (SARS-CoV-2 [1]; FIG. 3): 1,000 fold
9 | CC(C)(CCNC(=N)Nc1cnc(C(F)(F)F)nc1)Oc1ccc(C(F)(F)F)cc1 [Compound I, 1-(3-methyl-3-(4-(trifluoromethyl)phenoxy)butyl)-3-(2-(trifluoromethyl)pyrimidin-5-yl)guanidine] |  | 10.5 µM | 0.035 µM | 
10 | COc1cc(NC(=N)NCCC(C)(C)Oc2ccc(C(F)(F)F)cc2)cnc1C#N [Compound J, 1-(6-cyano-5-methoxypyridin-3-yl)-3-(3-methyl-3-(4-(trifluoromethyl)phenoxy)butyl)guanidine] |  | 8.5 µM | 0.007 µM | 
11 | Cc1cc(OCCN2CCOCC2)nn1-c1ccc2ccccc2c1 [Compound S1RA, 4-[2-[[5-methyl-1-(2-naphthalenyl)-1H-pyrazol-3-yl]oxy]ethyl]morpholine, reference compound] | did not block infection; also recorded: does not block infection |  |  | 
12 | N=C(Nc1ccc(I)cc1)NC1C2CC3CC(C2)CC1C3 (centres unmarked) [IPAG, reference compound] | suppressed SARS-CoV-2 infection; also recorded: inhibit SARS-CoV-2 infection |  |  | blocked SARS-CoV-2 infection, fold (SARS-CoV-2 [1]; FIG. 3): 1,000 fold; dihydrotesterone (DHT) induced AR transcriptional activity (Androgen Receptor [2]): inhibition; TMPRSS2 transcript (TMPRSS2 mRNA transcript): decreased
13 | O=C(OCCN1CCOCC1)C1(c2ccccc2)CCCCC1 [PRE084, 2-morpholin-4-ylethyl 1-phenylcyclohexane-1-carboxylate, reference compound] | did not block infection |  |  | 
14 | COc1ccc(CCN2CCN(CCCc3ccccc3)CC2)cc1OC [SA4503, 1-(3,4-dimethoxyphenethyl)-4-(3-phenylpropyl) piperazine, reference compound] | did not block infection |  |  | 
15 | O=C(CCCN1CCC(O)(c2ccc(Cl)cc2)CC1)c1ccc(F)cc1 [haloperidol, 4-[4-(4-chlorophenyl)-4-hydroxypiperidin-1-yl]-1-(4-fluorophenyl)butan-1-one, reference compound] | suppressed SARS-CoV-2 infection |  |  | effect on SARS-CoV-2 infection (in words) (SARS-CoV-2 [1]; FIG. 3, listed as Haloperidol): clear but modest antiviral effect

— patent US12582619B2 (priority 2020, dated 2026)
